Laboratory results taken from patent publication US5164381A, “Pharmacologically active 1,5-diaryl-3-substituted pyrazoles and method for synthesizing the same” (Ortho Pharmaceutical Corporation, priority 1991, dated 1992).

What was measured:
bronchospasm / LTB4 = assay: Arachidonic acid-induced bronchospasm and LTB4 blood levels in anesthetized guinea pigs; type: in vivo; conditions: AA i.v. 10 mg/kg
Protocol: Intravenous administration of 10 mg/kg AA to anesthetized guinea pigs pretreated with indomethacin (10 mg/kg) and propranolol (0.1 mg/kg) results in a sustained bronchospasm which is associated with increased blood levels of LTB4. […] In the dog, intraarticular injection of rabbit anti-dog-dog IgG immune complexes into the knee joint results in an acute synovitis characterized by an influx of inflammatory cells into the joint space as well as an increase in synovial fluid levels of PGE2 and LTB4.

cyclooxygenase (CO) = conditions: cited from earlier work
interleukin-1 = conditions: in vitro and in vivo; cited from earlier work
C-reactive protein = conditions: rheumatoid arthritis patients; cited from earlier work
[1] = test system: Lewis strain laboratory rats; assay: In vivo alleviation of inflammation: polyarthritis (adjuvant, Mycobacterium butyricum) in rats, inhibition of paw volume increase; conditions: rat; for inhibition in vivo at 15 mg/kg: 15 mpk p.o.; for inhibition in vivo at 25 mg/kg: 25 mpk p.o.; for inhibition in vivo at 10 mg/kg: 10 mpk p.o.; for inhibition in vivo at 40 mg/kg: 40 mpk p.o.; for ED50: Rattus norvegicus, read-out: ED50 (effective dose to obtain a 50% inhibition of inflammation); for ED50 (effective dose to obtain a 50% inhibition of inflammation): p.o.; for inhibition in vivo at 50 mg/kg: 50 mpk p.o.
Protocol: Polyarthritis was induced in Lewis strain laboratory rats (weight=about 200 grams) by injection of a suspension of Mycobacterium butyricum in mineral oil into the subplantar tissue of the mammal's hind paws. On day 10 after the injection, the rats were assigned to groups, and paw volumes and body weights were recorded. Paw volumes of the contralateral, uninjected hind paw were determined by mercury plethylsmography. Per oral (p.o.) dosing began and continued for five consecutive days thereafter. On day 14 after the initial injection, approximately four hours after the final dose was administered, paw volumes and body weights were recorded and quantitated.
Anti-inflammatory activity of the substituted pyrazole compounds is expressed as the percent inhibition of paw volume increase.

[2] = po, 336 h, read-out: % INH. p.o. (percentage inhibition of pad swelling)

COc1ccc2c(c1)c(CC(=O)O)c(C)n2C(=O)c1ccc(Cl)cc1 [indomethacin]
effect on LTB4 levels (in words) (bronchospasm / LTB4): no effect | effect on bronchospasm (in words) (bronchospasm / LTB4): no effect | inhibition of cyclooxygenase enzyme by NSAIDs (in words) (cyclooxygenase (CO)): only inhibit the cyclooxygenase enzyme

NC(=O)N1C(=O)C(=C(O)c2cccs2)c2cc(Cl)ccc21 [CP 66,248]
inhibition of interleukin-1 levels (in words) (interleukin-1): could inhibit interleukin-1 levels in vitro and in vivo | C-reactive protein levels (in words) (C-reactive protein): reduction of C-reactive protein levels

COc1ccc(-n2nc(CCC(=O)NCCO)cc2-c2ccc(Cl)cc2)cc1 [Compound 65]
inhibition in vivo at 15 mg/kg [1, 2]: 21%

Cc1ccc(-n2nc(CCCO)cc2-c2ccc(Cl)cc2)cc1 [Compound 37]
inhibition in vivo at 25 mg/kg [1, 2]: 41%

COc1ccc(-n2nc(CCCO)cc2-c2ccc(F)cc2)cc1 [Compound 30]
inhibition in vivo at 25 mg/kg [1, 2]: 42%

COc1ccc(-c2cc(CCC(=O)N(C)O)nn2-c2ccc(OC)cc2)cc1 [Compound 113]
inhibition in vivo at 10 mg/kg [1, 2]: 34%

COc1ccc(-n2nc(CCNC(=O)C(=O)N(C)O)cc2-c2ccc(Cl)cc2)cc1 [Compound 163]
inhibition in vivo at 15 mg/kg [1, 2]: 28%

COc1ccc(-n2nc(CCCOCC(=O)O)cc2-c2ccc(Cl)cc2)cc1 [Compound 93]
inhibition in vivo at 15 mg/kg [1, 2]: 17%

COc1ccc(-n2nc(CCC(C)O)cc2-c2ccc(Cl)cc2)cc1 (stereo not drawn) [Compound 20, 5-(4-Chlorophenyl)-3-(3-hydroxybutyl)-1-(4-methoxyphenyl) pyrazole]
inhibition in vivo at 40 mg/kg [1, 2]: 19%

O=C(O)CCc1cc(-c2ccc(Cl)cc2)n(-c2ccccc2)n1 [Compound 17, 3-[5-(4-Chlorophenyl)-1-phenyl-3-pyrazolyl]propionic acid]
inhibition in vivo at 25 mg/kg [1, 2]: 50%

COc1ccc(-n2nc(CCCNO)cc2-c2ccc(Cl)cc2)cc1 [Compound 151, N-[3-[5-(4-Chlorophenyl)-1-(4-methoxyphenyl)-3-pyrazolyl]propyl]hydroxyl-amine]
inhibition in vivo at 25 mg/kg [1, 2]: 42%

COc1ccc(-n2nc(CCC=O)cc2-c2ccc(Cl)cc2)cc1 [Compound 11, 3-[5-(4-Chlorophenyl)-1-(4-methoxyphenyl)-3-pyrazolyl] propanal]
ED50 ([1]; po): 2.6 mg/kg

COc1ccc(-n2nc(CCC(=N)N(C)O)cc2-c2ccc(Cl)cc2)cc1 [Compound 185, N-Hydroxy-N-methyl-2-[5-(4-chlorophenyl)-1-(4-methoxyphenyl)-3-pyrazolyl]ethylcarboximidamide Monohydrate]
inhibition in vivo at 15 mg/kg [1, 2]: 5%

COc1ccc(-n2nc(CCC(=O)O)cc2-c2ccc(Cl)cc2)cc1 [Compound 12, 3-[5-(4-Chlorophenyl)-1-(4-methoxyphenyl)-3-pyrazolyl] propionic acid]
ED50 (effective dose to obtain a 50% inhibition of inflammation) [1]: 5.2 mpk

COc1ccc(-n2nc(CCC=NO)cc2-c2ccc(Cl)cc2)cc1 [Compound 26, 5-(4-Chlorophenyl)-3-(3-oximinopropyl)-1-(4-methoxyphenyl) pyrazole]
inhibition in vivo at 25 mg/kg [1, 2]: 79%

COc1ccc(-n2nc(CCC(=O)N(C)OC(=O)CCC(=O)O)cc2-c2ccc(C)cc2)cc1 [Compound 130]
ED50 ([1]; po): 11.5 mg/kg

OCCCc1cc(-c2ccc(Cl)cc2)n(-c2ccc(Cl)c(Cl)c2)n1 [Compound 8]
inhibition in vivo at 50 mg/kg [1, 2]: 41%

CCN(CC)C(=O)CCc1cc(-c2ccc(Cl)cc2)n(-c2ccc(OC)cc2)n1 [Compound 28, 3-[5-(4-Chlorophenyl)-1-(4-methoxyphenyl)-3-pyrazolyl]-N,N-diethylpropanamide]
inhibition in vivo at 25 mg/kg [1, 2]: 44%

COc1ccc(-n2nc(CCC(C)=NNc3nccs3)cc2-c2ccc(Cl)cc2)cc1 [Compound 173, 5-(4-Chlorophenyl)-1-(4-methoxyphenyl)-3-(3-oxobutyl)pyrazole thiazol-2-yl hydrazone]
inhibition in vivo at 15 mg/kg [1, 2]: 39%

COc1ccc(-n2nc(CCC(=O)N(C)OC(=O)CN(C)C)cc2-c2ccc(Cl)cc2)cc1 [Compound 134, 3-[5-(4-Chlorophenyl)-1-(4-methoxyphenyl)-3-pyrazolyl]-N',N'-dimethylglycinyloxy-N-methylpropanamide]
ED50 ([1]; po): 12.5 mg/kg

CN(O)C(=O)CCc1cc(-c2ccc(Cl)cc2)n(-c2ccccc2)n1 [Compound 67, 3-[5-(4-Chlorophenyl)-1-phenyl-3-pyrazolyl]-N-hydroxy-N-methyl propanamide]
inhibition in vivo at 40 mg/kg [1, 2]: 30%

COc1ccc(-n2nc(CCC(=O)NO)cc2-c2ccc(Cl)cc2)cc1 [Compound 29, 3-[5-(4-Chlorophenyl)-1-(4-methoxyphenyl)-3-pyrazolyl]-N-hydroxypropanamide]
inhibition in vivo at 25 mg/kg [1, 2]: 91%

COc1ccc(-n2nc(CCCO)cc2-c2ccc(C(F)(F)F)cc2)cc1 [Compound 56, 5-(4-trifluoromethylphenyl)-3-(3-hydroxypropyl)-1-(4-methoxyphenyl) pyrazole]
ED50 ([1]; po): 3 mg/kg

OCCCc1cc(-c2ccccc2)n(-c2ccc(Cl)cc2)n1 [Compound 21]
inhibition in vivo at 50 mg/kg [1, 2]: 52%

COc1ccc(-n2nc(CCC(=O)N(C)OC)cc2-c2ccc(Cl)cc2)cc1 [Compound 44]
inhibition in vivo at 25 mg/kg [1, 2]: 69%

CCC(CCc1cc(-c2ccc(Cl)cc2)n(-c2ccc(OC)cc2)n1)=NNc1nccs1 [Compound 175]
inhibition in vivo at 10 mg/kg [1, 2]: 16%

COc1ccc(-c2cc(CCC(=O)N(C)O)nn2-c2ccc(Cl)cc2)cc1 [Compound 112]
ED50 ([1]; po): 16.3 mg/kg

COc1ccc(-n2nc(CCC(N)=O)cc2-c2ccc(Cl)cc2)cc1 [Compound 31]
inhibition in vivo at 25 mg/kg [1, 2]: 75%

Nc1ccc(-n2nc(CCCO)cc2-c2ccc(Cl)cc2)cc1 [Compound 69]
inhibition in vivo at 15 mg/kg [1, 2]: 17%

COc1ccc(-n2nc(CCCN(O)S(C)(=O)=O)cc2-c2ccc(Cl)cc2)cc1 [Compound 156]
inhibition in vivo at 9 mg/kg ([1]; po, 336 h, 9 mpk p.o., read-out: % INH. p.o. (percentage inhibition of pad swelling)): 34%

COc1ccc(-n2nc(CCC(=O)c3ccccc3)cc2-c2ccc(Cl)cc2)cc1 [Compound 181]
inhibition in vivo at 15 mg/kg [1, 2]: 30%

COc1ccc(-n2nc(CCC(=O)N(C)O)cc2-c2ccc(F)cc2)cc1 [Compound 45, 3-[5-(4-Fluorophenyl)-1-(4-methoxyphenyl)-3-pyrazolyl]-N-hydroxy-N-methyl propanamide]
inhibition in vivo at 25 mg/kg [1, 2]: 51%

COc1ccc(-n2nc(CCCN(O)C(=O)C(=O)NO)cc2-c2ccc(Cl)cc2)cc1 [Compound 158, N-[3-[5-(4-Chlorophenyl)-1-(4-methoxyphenyl)-3-pyrazolyl]propyl]-N,N'-dihydroxyoxamide]
ED50 ([1]; po): 33.4 mg/kg

COc1ccc(-n2nc(CC/C=C\CCCC(=O)O)cc2-c2ccc(Cl)cc2)cc1 [Compound 32, Sodium 8-[5-(4-Chlorophenyl)-1-(4-methoxyphenyl)-3-pyrazolyl]-5(Z)-octenoate]
inhibition in vivo at 25 mg/kg [1, 2]: 69%

COc1ccc(-n2nc(CCC(=O)O)cc2-c2ccc(Cl)cc2)cc1 [Compound 13, Sodium 3-[5-(4-chlorophenyl)-1-(4-methoxyphenyl)-3-pyrazoyl] propanoate monohydrate]
ED50 (effective dose to obtain a 50% inhibition of inflammation) ([1]; monohydrate): 1.8 mpk

COCC(=O)ON(C)C(=O)CCc1cc(-c2ccc(Cl)cc2)n(-c2ccc(OC)cc2)n1 [Compound 142]
inhibition in vivo at 10 mg/kg [1, 2]: 67%

CCOc1ccc(-n2nc(CCC(=O)O)cc2-c2ccc(Cl)cc2)cc1 [Compound 72]
inhibition in vivo at 15 mg/kg [1, 2]: 71%

CCC(=O)CCc1cc(-c2ccc(Cl)cc2)n(-c2ccc(OC)cc2)n1 [Compound 180]
inhibition in vivo at 15 mg/kg [1, 2]: 32%

CCCCCCCC(=O)N(O)CCCc1cc(-c2ccc(Cl)cc2)n(-c2ccc(OC)cc2)n1 [Compound 154]
inhibition in vivo at 10 mg/kg [1, 2]: 11%
